Results as given in patent US20100041089A1, “IMPROVED METHOD FOR DETECTING CHEMICAL […]” (priority 2006, published 2010).

Test system: yeast genes (expressed mRNA)
Assay: DNA chip measurement of expressed mRNA of yeast genes after culture with a toxic chemical substance
Type: cell-based, Saccharomyces cerevisiae S288C
Conditions: for level of expressed mRNA in the presence of chemical substance / level in the absence of chemical substance: cultured two hours with the chemical substance; for The level of expressed mRNA in the presence of chemical substance/The level of expressed mRNA in the absence of chemical substance: cultured two hours with substance
Method: Yeast (Saccharomyces cerevisiae S288C (a SUC2mal mel gap2 CUP1)) were cultured at 25° C. on YPD medium (yeast extract 1%, polypeptone 2%, glucose 2%). One of toxic chemical substances was added to the cell at logarithmic growth phase, and the cell was further cultured for two hours. Cell was cultured without any chemical substance in the same condition, and was used as a control. Concentrations of the chemical substances were defined to inhibit the growth of the yeast but not lead to death.
After the completion of cultivation, the culture was centrifuged to collect the cells. To the cells, sodium acetate buffer (50 mM sodium acetate, 10 mM EDTA, 1% SDS) was added, and the mixture was shaken at 65° C. for five minutes, followed by returning to room temperature, and obtaining the supernatant, which procedure was repeated two times. To the supernatant, ½ amount of a solution of phenol/chloroform (1:1) was added, and the mixture was centrifuged to give a supernatant, an equal amount of chloroform was added, and the mixture was centrifuged to give a supernatant. To the supernatant, an equal amount of isopropanol containing 0.3 M sodium acetate was added, and the mixture was allowed to stand at room temperature for 30 minutes, after which the mixture was centrifuged to give sediment of the whole RNAs. Seventy % ethanol was added to the sediment, and the mixture was again centrifuged to give sediment, which was then dried and dissolved in water. mRNA was isolated from the whole RNAs as followings. In view of the fact that a poly A chain is attached to the 3′ terminus of mRNA, a polynucleotide having a poly T structure which was immobilized on the surface of latex beads was used to trap the mRNA, and then the mRNA was washed and eluted with spine column (Oligotex-dT30<Super>mRNA Purification Kit, Takara). Reverse transcription of the mRNA was conducted with a reverse transcriptase (Super Script II Reverse Transcriptase; catalogue No. 18064-014, GibcoBRL) using fluorescence-labeled nucleotides to give cDNAs that were introduced with Cy3-dUTP or Cy5-dUTP during the reverse transcription.
The labeled cDNAs were dissolved in TE buffer (10 mM Tris-HCl/1 mM EDTA, pH 8.0), and the solution was dropped on the DNA chip containing the whole genes of yeast (DNA Chip Research Inc. Japan) so that the cDNAs were hybridized on the DNA chip at 65° C. for over 12 hours. The fluoresces intensity of the DNA chip was read with a scanner, and the ratio relative to the fluorescence intensity resulting from the absence of chemical substance was estimated as the following, which is shown in Tables 1 to 9.
In the Tables, “Intensity” indicated in the rightmost column is a value of the level of expressed mRNA of each gene in control cells as divided by the average level of the expressions of the whole genes. A gene of which mRNA level is lower in control, and is higher in cases of addition of chemical substance, is especially useful in the detection of toxic substances.
Here, when a ratio of an amount of mRNA expressed in the presence of the chemical substance to an amount of mRNA expressed in the absence of the chemical substance is two or more, then it is considered significant.

Which “level of expressed mRNA in the presence of chemical substance / level in the absence of chemical substance” value (yeast gene YNL058C) does the source give for CCCCCCCCCCCCc1ccc(S(=O)(=O)[O-])cc1.[Na+] [(17), Sodium dodecylbenzosulfonate] here?
Its value is 0.8.

And the “level of expressed mRNA in the presence of chemical substance / level in the absence of chemical substance” value (yeast gene YNL063W)?
The value was 0.9.

And the “The level of expressed mRNA in the presence of chemical substance/The level of expressed mRNA in the absence of chemical substance” value (yeast gene YNL074C)?
The value was 1.1.

What about the “The level of expressed mRNA in the presence of chemical substance/The level of expressed mRNA in the absence of chemical substance” value (yeast gene YNL092W) of the same molecule?
Its value is 1.7.

What about the “The level of expressed mRNA in the presence of chemical substance/The level of expressed mRNA in the absence of chemical substance” value (yeast gene YNL115C) of the same molecule?
Its value is 1.6.

What about the “The level of expressed mRNA in the presence of chemical substance/The level of expressed mRNA in the absence of chemical substance” value (yeast gene YNL156C) of the same molecule?
The value was 1.8.

What about the “level of expressed mRNA in the presence of chemical substance / level in the absence of chemical substance” value (yeast gene YNL176C) of the same molecule?
Its value is 0.6.

And the “level of expressed mRNA in the presence of chemical substance / level in the absence of chemical substance” value (yeast gene YNL194C)?
Its value is 0.8.

What about the “level of expressed mRNA in the presence of chemical substance / level in the absence of chemical substance” value (yeast gene YNL200C) of the same molecule?
The value was 1.2.

What about the “The level of expressed mRNA in the presence of chemical substance/The level of expressed mRNA in the absence of chemical substance” value (yeast gene YNL234W) of the same molecule?
The value was 1.0.

What about the “level of expressed mRNA in the presence of chemical substance / level in the absence of chemical substance” value (yeast gene YNL253W) of the same molecule?
Its value is 1.1.

What about the “level of expressed mRNA in the presence of chemical substance / level in the absence of chemical substance” value (yeast gene YNL276C) of the same molecule?
The value was 1.1.

What about the “The level of expressed mRNA in the presence of chemical substance/The level of expressed mRNA in the absence of chemical substance” value (yeast gene YNL281W) of the same molecule?
Its value is 0.9.

And the “The level of expressed mRNA in the presence of chemical substance/The level of expressed mRNA in the absence of chemical substance” value (yeast gene YNL305C)?
The value was 1.7.

What about the “level of expressed mRNA in the presence of chemical substance / level in the absence of chemical substance” value (yeast gene YNR051C) of the same molecule?
The value was 0.7.

What about the “The level of expressed mRNA in the presence of chemical substance/The level of expressed mRNA in the absence of chemical substance” value (yeast gene YNR068C) of the same molecule?
The value was 1.0.

And the “level of expressed mRNA in the presence of chemical substance / level in the absence of chemical substance” value (yeast gene YOL026C)?
The value was 2.1.

What about the “The level of expressed mRNA in the presence of chemical substance/The level of expressed mRNA in the absence of chemical substance” value (yeast gene YOL032W) of the same molecule?
The value was 1.7.

And the “The level of expressed mRNA in the presence of chemical substance/The level of expressed mRNA in the absence of chemical substance” value (yeast gene YOL036W)?
Its value is 1.1.

And the “The level of expressed mRNA in the presence of chemical substance/The level of expressed mRNA in the absence of chemical substance” value (yeast gene YOL047C)?
The value was 1.5.

What about the “The level of expressed mRNA in the presence of chemical substance/The level of expressed mRNA in the absence of chemical substance” value (yeast gene YOL071W) of the same molecule?
The value was 1.3.

What about the “The level of expressed mRNA in the presence of chemical substance/The level of expressed mRNA in the absence of chemical substance” value (yeast gene YOL082W) of the same molecule?
The value was 1.6.

And the “The level of expressed mRNA in the presence of chemical substance/The level of expressed mRNA in the absence of chemical substance” value (yeast gene YOL083W)?
The value was 1.4.

And the “The level of expressed mRNA in the presence of chemical substance/The level of expressed mRNA in the absence of chemical substance” value (yeast gene YOL117W)?
Its value is 1.3.

And the “The level of expressed mRNA in the presence of chemical substance/The level of expressed mRNA in the absence of chemical substance” value (yeast gene YOL131W)?
The value was 1.1.

And the “The level of expressed mRNA in the presence of chemical substance/The level of expressed mRNA in the absence of chemical substance” value (yeast gene YOL150C)?
The value was 2.7.

And the “The level of expressed mRNA in the presence of chemical substance/The level of expressed mRNA in the absence of chemical substance” value (yeast gene YOL162W)?
Its value is 1.2.

What about the “The level of expressed mRNA in the presence of chemical substance/The level of expressed mRNA in the absence of chemical substance” value (yeast gene YOR019W) of the same molecule?
Its value is 1.7.

And the “level of expressed mRNA in the presence of chemical substance / level in the absence of chemical substance” value (yeast gene YOR022C)?
The value was 1.1.

What about the “level of expressed mRNA in the presence of chemical substance / level in the absence of chemical substance” value (yeast gene YOR087W) of the same molecule?
Its value is 0.8.

And the “level of expressed mRNA in the presence of chemical substance / level in the absence of chemical substance” value (yeast gene YOR138C)?
The value was 1.1.

What about the “The level of expressed mRNA in the presence of chemical substance/The level of expressed mRNA in the absence of chemical substance” value (yeast gene YOR197W) of the same molecule?
Its value is 1.5.

And the “level of expressed mRNA in the presence of chemical substance / level in the absence of chemical substance” value (yeast gene YOR253W)?
Its value is 0.9.

What about the “level of expressed mRNA in the presence of chemical substance / level in the absence of chemical substance” value (yeast gene YOR267C) of the same molecule?
Its value is 1.3.

And the “level of expressed mRNA in the presence of chemical substance / level in the absence of chemical substance” value (yeast gene YOR325W)?
The value was 0.8.

What about the “level of expressed mRNA in the presence of chemical substance / level in the absence of chemical substance” value (yeast gene YPL005W) of the same molecule?
The value was 1.2.

And the “The level of expressed mRNA in the presence of chemical substance/The level of expressed mRNA in the absence of chemical substance” value (yeast gene YPL087W)?
Its value is 2.1.

And the “level of expressed mRNA in the presence of chemical substance / level in the absence of chemical substance” value (yeast gene YPL150W)?
Its value is 1.4.

And the “level of expressed mRNA in the presence of chemical substance / level in the absence of chemical substance” value (yeast gene YPL152W)?
Its value is 1.2.

What about the “level of expressed mRNA in the presence of chemical substance / level in the absence of chemical substance” value (yeast gene YPL168W) of the same molecule?
The value was 1.1.

What about the “level of expressed mRNA in the presence of chemical substance / level in the absence of chemical substance” value (yeast gene YPL180W) of the same molecule?
The value was 1.0.

What about the “level of expressed mRNA in the presence of chemical substance / level in the absence of chemical substance” value (yeast gene YPL188W) of the same molecule?
The value was 0.7.

What about the “The level of expressed mRNA in the presence of chemical substance/The level of expressed mRNA in the absence of chemical substance” value (yeast gene YPL196W) of the same molecule?
Its value is 1.4.

And the “The level of expressed mRNA in the presence of chemical substance/The level of expressed mRNA in the absence of chemical substance” value (yeast gene YPL206C)?
The value was 1.4.

What about the “level of expressed mRNA in the presence of chemical substance / level in the absence of chemical substance” value (yeast gene YPL221W) of the same molecule?
Its value is 1.5.

What about the “The level of expressed mRNA in the presence of chemical substance/The level of expressed mRNA in the absence of chemical substance” value (yeast gene YPL222W) of the same molecule?
The value was 1.1.

What about the “level of expressed mRNA in the presence of chemical substance / level in the absence of chemical substance” value (yeast gene YPL225W) of the same molecule?
Its value is 1.0.

And the “The level of expressed mRNA in the presence of chemical substance/The level of expressed mRNA in the absence of chemical substance” value (yeast gene YPR023C)?
The value was 1.0.

And the “level of expressed mRNA in the presence of chemical substance / level in the absence of chemical substance” value (yeast gene YPR049C)?
Its value is 1.0.

And the “level of expressed mRNA in the presence of chemical substance / level in the absence of chemical substance” value (yeast gene YPR146C)?
Its value is 1.0.

And the “level of expressed mRNA in the presence of chemical substance / level in the absence of chemical substance” value (yeast gene YPR148C)?
The value was 0.9.

What about the “The level of expressed mRNA in the presence of chemical substance/The level of expressed mRNA in the absence of chemical substance” value (yeast gene YPR151C) of the same molecule?
The value was 1.3.

And the “level of expressed mRNA in the presence of chemical substance / level in the absence of chemical substance” value (yeast gene YPR172W)?
The value was 1.1.
